Converted amounts (≈) assume the structure as drawn. “And” between values parts separate entries of the source, which are not always exact repeats. Identical values can stand only once. Like-named read-outs stand apart in the source and are kept apart here.
Experiments:
[1] = Metabolic stability in human liver microsomes (with UDPGA); conditions: for Cli: human liver microsomes 0.5 mg/mL, 5 μM, cofactors + UDPGA (Phase II stability)
Procedure: (§1) After the pre-incubation period, the reaction was started by adding the cofactor mixture (NADP, Glc6P, and Glc6P-DH in 2% sodium bicarbonate) and UDPGA. Samples (25 μL) were taken at times of 0, 10, 20, 30, 45, and 60 min and then mixed with 150 μL of ACN to stop the reaction. After centrifugation, the supernatants were analyzed by LC–MS/MS. A control sample without cofactors was included in the assay in order to check the stability of the test compounds in the matrix after 60 min. 7-Ethoxycoumarin (7-EC) and 7-hydroxycoumarin (7-OHC) were contemporarily tested as reference standards for the Phase I and Phase II reactions, respectively.

[2] = Metabolic stability in mouse liver microsomes (with UDPGA); conditions: for Cli: mouse liver microsomes 0.5 mg/mL, 5 μM, cofactors + UDPGA (Phase II stability)
Procedure: as §1

PCSK9/LDLR [3] = target: T1, PCSK9/LDLR (Homo sapiens, UniProt Q8NBP7); assay: In vitro PCSK9-LDLR binding assay (CircuLex/CycLex kit); conditions: for IC50: mean ± SD, three independent experiments, Hill slope fixed at −1
T1 construct: purchased CircuLex (CycLex Co., Nagano, Japan)
Procedure: Diimidazole analogues (0.1–1 × 10^6 nM) were tested using the in vitro PCSK9-LDLR binding assay (CycLex Co., Nagano, Japan) following the manufacturer’s instructions and with the conditions already optimized.[15] Briefly, the plates were pre-coated with a recombinant LDLR-AB domain containing the binding site of PCSK9. Before starting the assay, the tested analogues and/or the vehicle in DMSO were sonicated at 37 °C, diluted in the reaction buffer, and added in microcentrifuge tubes. Afterward, the reaction mixtures were added in each well of the microplate, and the reaction was started by adding His-tagged PCSK9 solution (3 μL). The microplate was allowed to incubate for 2 h at room-temperature (RT) shaking at 300 rpm on an orbital microplate shaker. Subsequently, the wells were washed 4 times with the wash buffer. After the last wash, the biotinylated anti-His-tag monoclonal antibody (100 μL) was added and incubated at RT for 1 h shaking at 300 rpm. After incubation, the wells were washed 4 times with wash buffer. After the last wash, 100 μL of HRP-conjugated streptavidin were added, and the plate was incubated for 20 min at RT. After incubation, the wells were washed 4 times with wash buffer. Finally, the substrate reagent (tetra-methylbenzidine) was added, and the plate was incubated for 10 min at RT shaking at ca. 300 rpm. The reaction was stopped with 2.0 M sulfuric acid, and the absorbance at 450 nm was measured using a Synergy H1 fluorescent plate reader (Winooski, VT, USA).
All the data sets were checked for normal distribution by D’Agostino and Pearson tests. Since they are all normally disturbed with p values of […], we proceeded with statistical analyses of one-way ANOVA followed by Tukey’s post hoc test using Graphpad Prism 9 (San Diego, CA, USA). Values were reported as means ± s.d.; p values of <0.05 were considered to be significant. The IC50 values of samples inhibiting PCSK9-LDLR binding were evaluated by using the log(inhibitor) vs response model of GraphPad Prism 9 (San Diego, CA, USA). This model assumes that the dose–response curves has a standard slope, equal to a Hill slope (or slope factor) of −1.0. This is the slope expected when a ligand binds to a receptor following the law of mass action and is the slope expected of a dose–response curve when the second messenger created by receptor stimulation binds to its receptor by the law of mass action (https://graphpad.com/guides/prism/latest/curvefitting/reg_dr_inhibit.htm).

[4] = target: T2, HMG-CoAR (catalytic domain) (Homo sapiens, UniProt P04035); assay: HMG-CoAR activity assay (Sigma kit, NADPH oxidation at 340 nm); assay type: biochemical; conditions: 10–500 μM tested, 37 °C
T2 construct: and finally, HMG-CoAR (catalytic domain) (2 μL); purchased Sigma Aldrich
T2 sequence (P04035 426-888 limits assumed): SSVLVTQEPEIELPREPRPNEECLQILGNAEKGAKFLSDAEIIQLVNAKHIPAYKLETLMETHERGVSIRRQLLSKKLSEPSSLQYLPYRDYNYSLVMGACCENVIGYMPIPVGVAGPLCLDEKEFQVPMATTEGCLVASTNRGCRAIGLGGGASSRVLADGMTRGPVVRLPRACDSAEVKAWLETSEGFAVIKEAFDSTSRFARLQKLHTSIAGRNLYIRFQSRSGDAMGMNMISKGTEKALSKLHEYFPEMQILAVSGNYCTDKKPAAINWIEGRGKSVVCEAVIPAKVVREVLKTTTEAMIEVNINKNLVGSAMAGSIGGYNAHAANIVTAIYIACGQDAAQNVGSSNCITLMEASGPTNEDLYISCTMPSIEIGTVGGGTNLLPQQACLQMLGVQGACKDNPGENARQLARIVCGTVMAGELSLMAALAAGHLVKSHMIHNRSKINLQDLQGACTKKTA
Procedure: The experiments were carried out following the manufacturer’s instructions and optimized protocol.[43] The assay buffer, NADPH, substrate solution, and HMG-CoAR were provided in the HMG-CoAR Assay Kit (Sigma Aldrich SRL, Milan, Italy). The experiments were carried out following the manufacturer’s instructions at 37 °C. In particular, each reaction (200 μL) was prepared adding the reagents in the following order: 1× assay buffer, a 10–500 μM dose of sonicated Dim analogues or vehicle (C), NADPH (4 μL), the substrate solution (12 μL), and finally, HMG-CoAR (catalytic domain) (2 μL). Subsequently, the samples were mixed, and the absorbance at 340 nm was read by a microplate reader (Synergy H1, Winooski, VT, USA) at times of 0 and 10 min. The HMGCoAR-dependent oxidation of NADPH and the inhibition properties of the peptides were measured by absorbance reduction, which is directly proportional to enzyme activity.

Solubility in PBS pH 7.4 = assay type: physicochemical; conditions: PBS buffer, pH 7.4, PBS, 37 °C
Procedure: Solubility was tested after incubation of the test item at 200 μM and 500 μM in PBS buffer pH 7.4 starting from an initial DMSO solution of Dim22 100 mM. Samples in duplicates were incubated at 37 °C for 90 min, were then centrifuged at 12500 rpm for 5 min. Supernatants were analyzed in LC/MS together with a solution of the compound in ACN.

PCSK9/LDLR [5] = target: T1, PCSK9/LDLR; conditions: cited from earlier work
[6] = target: T2, HMG-CoAR (catalytic domain); set-up: method as in doi:10.1016/j.jff.2017.02.009; conditions: cited from earlier work

T1 sequence (Q8NBP7 153-692): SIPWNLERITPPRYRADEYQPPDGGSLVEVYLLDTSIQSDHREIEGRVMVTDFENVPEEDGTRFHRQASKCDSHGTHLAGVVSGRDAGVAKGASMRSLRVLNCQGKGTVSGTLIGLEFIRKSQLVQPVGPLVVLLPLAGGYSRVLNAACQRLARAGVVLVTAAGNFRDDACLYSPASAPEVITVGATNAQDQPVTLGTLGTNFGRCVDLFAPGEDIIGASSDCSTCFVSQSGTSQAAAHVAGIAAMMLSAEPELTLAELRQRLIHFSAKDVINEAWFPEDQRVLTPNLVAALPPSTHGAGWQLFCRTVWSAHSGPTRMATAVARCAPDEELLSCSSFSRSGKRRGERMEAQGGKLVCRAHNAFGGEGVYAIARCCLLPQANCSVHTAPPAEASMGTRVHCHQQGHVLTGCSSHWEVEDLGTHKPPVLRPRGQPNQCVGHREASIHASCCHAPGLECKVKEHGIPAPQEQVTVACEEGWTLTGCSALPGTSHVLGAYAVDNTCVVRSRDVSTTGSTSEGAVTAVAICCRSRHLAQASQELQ
T1 sequence (Q8NBP7 31-152 limits assumed): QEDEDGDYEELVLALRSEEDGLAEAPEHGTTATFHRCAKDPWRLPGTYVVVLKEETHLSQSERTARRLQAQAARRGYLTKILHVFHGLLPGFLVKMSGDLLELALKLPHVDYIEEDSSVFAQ

`CCOc1ccc2ccc(=O)oc2c1` [7-EC, 7-Ethoxycoumarin, reference compound] gave a Cli [1] of 46.1 μL/min/mg protein and a Cli [2] of 290.9 μL/min/mg protein.
`O=c1ccc2ccc(O)cc2o1` [7-OHC, 7-hydroxycoumarin, reference compound] gave a Cli [1] of 390.0 μL/min/mg protein and a Cli [2] of 533.3 μL/min/mg protein.
For `CNCCCCCn1cncc1-c1ncc(-c2ccc3ccccc3c2)n1CCCC(C)(C)C` [Dim2, 5-(1-(4,4-Dimethylpentyl)-5-(naphthalen-2-yl)-1H,3′H-[2,4′-biimidazol]-3′-yl)-N-methylpentan-1-amine], the IC50 (PCSK9/LDLR [3]) was 1990 ± 1650 nM, the “PCSK9 activity, times less active than Dim16” value (PCSK9/LDLR [3]; ratio versus Dim16) was “about 2500” and the IC50 [4] was 40500 ± 15200 nM.
For `CNCCCCCn1cncc1-c1ncc(-c2ccc3ccccc3c2)n1CC1CCCCC1` [Dim21, 5-(1-(Cyclohexylmethyl)-5-(naphthalen-2-yl)-1H,3′H-[2,4′-biimidazol]-3’-yl)-N-methylpentan-1-amine], the IC50 (PCSK9/LDLR [3]) was 4500 ± 500 nM and the IC50 [4] was 38400 ± 12700 nM.
Work on `CNCCCCCn1c(-c2ncc(-c3ccc4ccccc4c3)n2CC2CCCCC2)cnc1I` [Dim22, 5-(1-(Cyclohexylmethyl)-2′-iodo-5-(naphthalen-2-yl)-1H,3′H-[2,4′-biimidazol]-3′-yl)-N-methylpentan-1-amine] yielded an IC50 (PCSK9/LDLR [3]) of 1990 ± 2860 nM, an IC50 [4] of 36200 ± 5980 nM and a solubility at 90 min (Solubility in PBS pH 7.4) of ~10 µM (≈ 5.82 µg/mL). For the same molecule, the solubility at 1.5 h (Solubility in PBS pH 7.4; 90 min) was 5.8 µg/mL (≈ 9.97 µM), the Cli [1] was 51.5 μL/min/mg protein and the clearance classification ([1]; human liver microsomes, classification of Table S4) was “medium–high”. For the same molecule, the “non-NADPH-dependent part of the observed metabolism” value ([1]; humans) was 50%, the “NADPH dependence of the observed metabolism” value ([2]; mice) was “NADPH-dependent” and the Cli [2] was 57.0 μL/min/mg protein. For the same molecule, the clearance classification ([2]; mouse liver microsomes, classification of Table S4) was “medium–high”.
For `C#Cc1ncc(-c2ncc(-c3ccc4ccccc4c3)n2CC2CCCCC2)n1CCCCCNC` [Dim23, 5-(1-(Cyclohexylmethyl)-2′-ethynyl-5-(naphthalen-2-yl)-1H,3′H-[2,4′-biimidazol]-3′-yl)-N-methylpentan-1-mine], the IC50 (PCSK9/LDLR [3]) was 1180 ± 1060 nM and the “HMG-CoAR activity IC50” value [4] was “not active”.
For `Cn1cnc(-c2ncc(-c3nc(-c4ncc(-c5ccccc5)n4C)cn3C)n2C)c1` [MeIm], the “IC50 value (PCSK9–LDLR interaction)” value (PCSK9/LDLR [5]; in words) is listed as “low-micromolar range”.
In the case of `CNCCCCCn1cncc1-c1nc(-c2ncc(-c3ccc(OC)cc3)n2C)cn1CCc1ccccc1` [RIm14], the “affinity with PCSK9” value (PCSK9/LDLR [5]; in words) is given as “low micromolar affinity”.
For `CNCCCCCn1cncc1-c1nc(-c2ncc(-c3ccc(OC)cc3)n2C)cn1Cc1ccccc1` [Rim13], the “affinity with PCSK9” value (PCSK9/LDLR [5]; in words) is given as “low micromolar affinity” and the IC50 (PCSK9/LDLR [5]; read-out: PCSK9/LDLR interaction IC50) is given as 1600 nM and ~1000 nM.
In the case of “LILPKHSDAD [P5, peptide P5 derived from lupin proteins]”, the IC50 (PCSK9/LDLR [5]; read-out: PCSK9/LDLR PPI IC50) is listed as 1600 nM and the IC50 [6] is listed as 147000 nM.

— PMC10291552, “Computational Design, Synthesis, and Biological Evaluation of Diimidazole Analogues Endowed with Dual PCSK9/HMG-CoAR-Inhibiting Activity” (Journal of Medicinal Chemistry, 2023)
